The conditions of data set [1]: as compared to sucrose; cited from earlier work.
For data set [2] the following is noted: on a weight basis; cited from earlier work.
Data set [3] relates to panelists. Kind of data set: Sweetness rating against sucrose SEV reference solutions. The data set is classed as in vivo, human. To be noted: for sweetness equivalence, as % solution of sucrose: 10% solution of the saccharide. The protocol: (§1) Additional sensory testing was carried out in accordance with the following procedure. The general framework for the sensory testing was to compare various concentrations of steviol glycoside (rebaudioside A) ranging from 100 ppm to as high as 2000 ppm at intervals spaced to characterize an adequate dose response. Due to known carryover effects, products were served as no more than two products per day, generally served as one of the following pairs: 100 ppm/250 ppm; 500 ppm/1000 ppm; 750 ppm/1500 ppm; 1000 ppm/2000 ppm. The products were not served counterbalanced, but were instead served in ascending concentration to allow for cleaner reads on both data points. The solutions were served in 2 ounce soufflé cups coded with 3-digit codes at room temperature. Store-purchased distilled water and unsalted crackers were available for the panelists to clear their palates before and during testing. Each daily study targeted 30 persons, though at times as fewer panelists were tested due to exclusionary requirements (i.e., those who are lactating, pregnant, on medication, etc., begin the study but then drop out during the study).
The study was designed as a rating study using an anchored scale of references of sucrose solutions in neutral pH water. In this study, panelists received a series of reference samples labeled and identified with their SEV equivalence. The range exceeded the expected sweetness of the test sample and panelists rated the sweetness using a 15-pt maximum that exceeds the expected sweetness of the test sample.
Because one cannot predict the sensitivities of all individuals effectively prior to testing, a broader range of references was used. Specifically, SEV references were as follows (the percentages stated are in weight %):
(§2) Panelists first were asked to familiarize themselves with the intensity of each reference solution and its corresponding SEV. Next, they waited 30 sec and cleansed their palate with water and a cracker. Then panelists were asked to taste the test sample (identified by a random 3-digit code). Then they were instructed to drag a marker on a line scale to match the sweetness of their test samples relative to the references noted above, with the scale ranging from 0 to 15. The value they selected was shown above the line scale so panelists were aware of what values they were indicating. Once this was complete, inquiries related to the liking of the test sample, the similarity of the taste of the test sample to sugar, the intensity of any off flavors, and the identity of any off flavors were asked.

Data set [4] has as its system panelists. Kind of data set: Comparative bitterness of 1000 ppm rebaudioside A 97 solutions, three panelists. The data set is classed as in vivo, human. To be noted: for masking the bitterness of rebaudioside A 97: conclusion from the panel, 10% with 1000 ppm rebaudioside A 97. The protocol:
Three aqueous solutions of 1000 ppm rebaudioside A 97 (rebaudioside A having a purity of 97%) were prepared with 10% maltotriose, 2.5% sucrose, or no additional component. The sweetness of a 10% maltotriose solution is approximately equal to a 2.5% sucrose solution. Three panelists were asked to assess the samples for comparative bitterness and were instructed to rinse with water between samples in order to mute any carry-over effects. […] One panelist found the sucrose-containing solution to be the most bitter. […] The panelist that reported the sucrose-containing solution to be less bitter than the maltotriose containing solution, self-identified as an individual not particularly sensitive to the bitterness of rebaudioside A 97. Therefore, the bitterness masking effect of maltotriose may be more plainly observed in those more sensitive to the bitterness of rebaudioside A 97.
Three aqueous solutions of 1000 ppm rebaudioside A 97 were prepared with 10% maltotetraose-enriched syrup (containing 60% maltotetraose on a dry weight basis with other carbohydrates including maltotriose, maltose and glucose), 2.5% sucrose, or no additional component. As a note, the sweetness of a 10% maltotetraose solution is roughly equal to a 2.5% sucrose solution. Three panelists were asked to assess the samples for comparative bitterness and were instructed to rinse with water between samples in order to mute any carry-over effects. […] Therefore, the bitterness masking effect of maltotetraose may be more plainly observed in those sensitive to the bitterness of rebaudioside A 97.

For data set [5], the system named is panelists. Kind of data set: Off flavor intensity rating across the rebaudioside A dose response. It counts as in vivo, human. The protocol:
as §1
as §2, with “asked. […]” for “asked.”

A further data set relates to human sense of taste. Briefly: Taste threshold concentration in aqueous solution. It counts as in vivo. To be noted: neutral aqueous solution containing no other ingredients. The source says: As used herein, the term “taste threshold concentration associated with the tri-/tetra-saccharide(s)” means the minimum concentration at which a person can still taste the tri-/tetra-saccharide(s) by the human sense of taste, in particular in an aqueous solution containing no ingredient other than water and the tri-/tetra-saccharide(s). This taste threshold concentration may vary somewhat from person to person. For example, melezitose has a taste threshold concentration of about 2.5% by weight in a neutral aqueous solution containing no other ingredients.

For data set [6] the following is noted: dissolves in 100 g water at 21° C.; cited from earlier work.
For data set [7] the following is noted: recent studies, Food Chemistry 132 (2012) 1951-1958; cited from earlier work.
A further data set concerns S. mutans. To be noted: recent studies, Food Chemistry 132 (2012) 1951-1958; cited from earlier work.

In the case of `OC[C@H]1O[C@H](OC[C@H]2O[C@H](OC[C@H]3O[C@H](O[C@]4(CO)O[C@H](CO)[C@@H](O)[C@@H]4O)[C@H](O)[C@@H](O)[C@@H]3O)[C@H](O)[C@@H](O)[C@H]2O)[C@H](O)[C@@H](O)[C@H]1O` [Stachyose, stachyose], in data set [1], the degree of digestibility entry is listed as “low”. The “sweetness relative to sucrose” value in data set [2] is “approximately 28%”.

In the case of `OC[C@H]1O[C@H](O[C@H]2[C@H](O)[C@@H](O)[C@@H](O[C@H]3[C@H](O)[C@@H](O)[C@@H](O[C@H]4[C@H](O)[C@@H](O)C(O)O[C@@H]4CO)O[C@@H]3CO)O[C@@H]2CO)[C@H](O)[C@@H](O)[C@@H]1O` (some centres unmarked) [maltotetraose], the “sweetness equivalence, as % solution of sucrose” value with panelists [3] is about 2.5%. Moreover, in the data set with panelists [4], the “masking the bitterness of rebaudioside A 97” value is on record as “effective”.

Take `OC[C@H]1O[C@@](CO)(O[C@H]2O[C@H](CO)[C@@H](O)[C@H](O)[C@H]2O)[C@@H](O[C@H]2O[C@H](CO)[C@@H](O)[C@H](O)[C@H]2O)[C@@H]1O` [melezitose, α-D-glucose (1-3)-β-D-fructose (2-1)-α-D-glucose]: the “sweetness equivalence, as % solution of sugar (sucrose)” value in the data set on panelists [3] (5% solution of the saccharide) was about 1%. Also, in the data set with panelists [3], the “sweetness equivalence, as % solution of sucrose” value was 2.5%. Also, the “reduction of off-tastes of Reb A” value is given as “clear impact on the reduction of off-tastes” with panelists [5] (5% solution of melezitose (subsweet), FIG. 5) and “dramatic” with panelists [5] (10% melezitose solution, as sweet as 2.5% sucrose, FIG. 6). Moreover, the taste threshold concentration result in the data set on human sense of taste is “about 2.5 % by weight”. Further, the solubility in water in data set [6] is on record as 26.8 g. Besides, the “digestibility by in vitro assay” value in data set [7] is recorded as “not to be digestible”. The “utilization by S. mutans in dental caries assay” value with S. mutans is on record as “not utilized”.

For the compound `OC[C@H]1O[C@@](CO)(O[C@H]2O[C@H](CO)[C@@H](O)[C@H](O)[C@H]2O)[C@@H](O)[C@@H]1O` [sucrose, reference compound], the “increase of sweet taste perception of the Reb A dose response curve” value in the data set with panelists [3] (2.5% solution of sucrose, FIG. 1) is given as “about 2.5 sweetness units”. In addition, the “reduction of off flavors of Reb A” value in the data set on panelists [5] (2.5% solution of sucrose, FIG. 4) is given as “reduced somewhat”. Besides, the “comparative bitterness versus neat rebaudioside A solution” value with panelists [4] (1000 ppm rebaudioside A 97 with 2.5% sucrose, two of three panelists (Example 3)) is given as “equal in bitterness to the neat rebaudioside A solution”.

For maltotriose, the “sweetness equivalence, as % solution of sucrose” value with panelists [3] is recorded as about 2.5%. The “comparative bitterness versus rebaudioside A control” value in the data set on panelists [4] (1000 ppm rebaudioside A 97 in water with 10% test saccharide) is “less bitter than the rebaudioside A control”. Moreover, in the data set with panelists [4] (1000 ppm rebaudioside A 97 with 10% test saccharide, versus 2.5% sucrose and no additional component, three panelists), the “panelists who found the sample the least bitter of the three samples” value is “Two of the three”. Further, the “panelists who found the sample less bitter than the rebaudioside A control” value in the data set on panelists [4] (1000 ppm rebaudioside A 97 with 10% test saccharide, three panelists) is recorded as “All three”. The “masking the bitterness of rebaudioside A 97” value in the data set on panelists [4] was “effective”.

(Values after patent US11700870B2, “Use of tri- and tetra-saccharides as taste modulators” (Tate & Lyle Solutions USA LLC, priority 2016, dated 2023).)
